Reference: PubChem BioAssay AID182 (DTP/NCI, 2004)
Toxic doses and inconclusive results are not listed. Rule for the calls: active = survival T/C of 150% or more; inactive = T/C below 125% in these data.

System: BDF1 mice, P388/ADR leukemia ip, median survival T/C
Assay: NCI In Vivo Anticancer Drug Screen. Data for tumor model P388 Leukemia resistant to Adriamycin; NSC 123127, Developed at Scr 06 and 41 (intraperitoneal) in B6D2F1 (BDF1) mice
Conditions: endpoint: median survival time, schedule: Q04DX003 (ip), higher = longer survival
Method: The antitumor activity of compounds was measured in mice bearing transplantable tumors. Survival or tumor size were measured and the results are expressed as the measurement made in the treated group (T) divided by the measurement made in the vehicle treated control group (C). The tumor model used in this assay is P388 Leukemia resistant to Adriamycin; NSC 123127, Developed at Scr 06 and 41 (intraperitoneal) in B6D2F1 (BDF1) mice

Measured: T/C

CCC1(O)CC2CN(CCc3c([nH]c4ccccc34)C(C(=O)OC)(c3cc4c(cc3OC)N(C)C3C(O)(C(=O)NCCSSCCNC(=O)C5(O)C(O)C6(CC)C=CCN7CCC8(c9cc(C%10(C(=O)OC)CC%11CN(CCc%12c%10[nH]c%10ccccc%12%10)CC(O)(CC)C%11)c(OC)cc9N(C)C58)C76)C(O)C5(CC)C=CCN6CCC43C65)C2)C1 (stereo not given)
inactive: dose: 432.0 micrograms/kg/injection, vehicle: saline 111 % of control | dose: 720.0 micrograms/kg/injection, vehicle: saline 124 % of control | dose: 2000.0 micrograms/kg/injection, vehicle: saline 116 % of control

CCC1=C(C[C@H]2NCCc3cc(OC)c(OC)cc32)C[C@H]2c3cc(OC)c(OC)cc3CCN2C1
inactive: dose: 10.8 mg/kg/injection, vehicle: saline 108 % of control | dose: 18.0 mg/kg/injection, vehicle: saline 96 % of control | dose: 30.0 mg/kg/injection, vehicle: saline 107 % of control

CC[C@]1(O)C[C@H](OC2CC(N(C)C)C(OC3CC(O)C(O)C(C)O3)C(C)O2)c2c(cc3c(c2O)C(=O)c2c(O)ccc(O)c2C3=O)[C@H]1C(=O)OC (stereo not given in full)
inactive: dose: 3.46 mg/kg/injection, vehicle: other 106 % of control | dose: 5.76 mg/kg/injection, vehicle: other 102 % of control | dose: 9.6 mg/kg/injection, vehicle: other 93 % of control

COc1cccc2c1C(=O)c1c(O)c3c(c(O)c1C2=O)C[C@@](O)(C(C)=O)C[C@@H]3OC1CC(N(C)C)C(O)C(C)O1 (stereo not given in full)
inactive: dose: 3.46 mg/kg/injection, vehicle: water 114 % of control | dose: 5.76 mg/kg/injection, vehicle: water 121 % of control | dose: 9.6 mg/kg/injection, vehicle: water 113 % of control | dose: 16.0 mg/kg/injection, vehicle: water 104 % of control

COc1cccc2c1C(=N)c1c(O)c3c(c(O)c1C2=O)C[C@@](O)(C(C)=O)C[C@@H]3OC1CC(N)C(O)C(C)O1 (stereo not given in full)
inactive: dose: 3.46 mg/kg/injection, vehicle: saline 99 % of control | dose: 5.76 mg/kg/injection, vehicle: saline 102 % of control | dose: 9.6 mg/kg/injection, vehicle: saline 115 % of control | dose: 16.0 mg/kg/injection, vehicle: saline 104 % of control

O=C(Nc1ccc(C2=NCCCN2)cc1)c1ccc(C(=O)Nc2ccc(C3=NCCCN3)cc2)cc1
inactive: dose: 10.8 mg/kg/injection, vehicle: other 118 % of control | dose: 30.0 mg/kg/injection, vehicle: other 94 % of control

CC[C@@]1(O)C[C@H](OC2CC(N(C)C)C(O)C(C)O2)c2c(cc3c(c2O)C(=O)c2c(O)ccc(O)c2C3=O)[C@H]1C(=O)OC (stereo not given in full)
inactive: dose: 4.32 mg/kg/injection, vehicle: other 110 % of control | dose: 7.2 mg/kg/injection, vehicle: other 109 % of control | dose: 12.0 mg/kg/injection, vehicle: other 104 % of control | dose: 20.0 mg/kg/injection, vehicle: other 110 % of control

CC1OC(OC2CC(O)(C(=O)CO)Cc3c(O)c4c(c(O)c32)C(=O)c2ccccc2C4=O)CC(N)C1O (stereo not given)
inactive: dose: 216.0 micrograms/kg/injection, vehicle: water 100 % of control | dose: 360.0 micrograms/kg/injection, vehicle: water 102 % of control | dose: 600.0 micrograms/kg/injection, vehicle: water 101 % of control | dose: 1000.0 micrograms/kg/injection, vehicle: water 99 % of control

COC(=O)C[C@](O)(CCCC(C)(C)O)C(=O)O[C@@H]1C(OC)=C[C@]23CCCN2CCc2cc4c(cc2[C@H]13)OCO4
inactive: dose: 0.72 mg/kg/injection, vehicle: acid diluted with saline 100 % of control | dose: 1.2 mg/kg/injection, vehicle: acid diluted with saline 103 % of control | dose: 2.0 mg/kg/injection, vehicle: acid diluted with saline 110 % of control
